ChEMBL document CHEMBL3885861, “Open TG-GATES”

Organism: Rattus norvegicus
Assay: Open TG-GATES - Regimen: Daily Repeat
Format: toxicity, organism-based, Sprague-Dawley
Parameters: regimen Daily Repeat, gender Male, age 6 weeks
Settings: in vivo, po, 0 mg/kg, route gavage, dose level Control; for APTT / Bas / Eos / Fbg / Hb / Ht / Lym / MCH / MCHC / MCV / Mono / Neu / PT / Plat / RBC / Ret / WBC: tissue Blood; for KIDNEY_L / KIDNEY_R / KIDNEY_TOTAL: tissue Kidney; for LIVER: tissue Liver; for A/G / ALP / ALT / AST / BUN / CRE / Ca / Cl / DBIL / GLC / IP / K / LDH / Na / PL / RALB / TBIL / TC / TG / TP / gamma-GTP: tissue Plasma

## OCCOCCN1CCN(C(c2ccccc2)c2ccc(Cl)cc2)CC1 (configuration not stated) [HYDROXYZINE]
72 h, time 3 day
  TERMINAL_BW: 230.9 g
  APTT: 15.5 s
  Bas: 0%
  Eos: 1%
  Fbg: 263.6 mg/dL
  Hb: 12.9 g/dL
  Ht: 39%
  Lym: 74.6%
  MCH: 21.1 pg
  MCHC: 33.1%
  MCV: 63.9 fL
  Mono: 3.2%
  Neu: 20.6%
  PT: 15.7 s
  Plat: 117.4 x10_4/uL
  RBC: 610.4 x10_4/ul
  Ret: 7.5%
  WBC: 77.5 x10_2/uL
  KIDNEY_L: 1 g
  KIDNEY_R: 1 g
  KIDNEY_TOTAL: 1.9 g
  LIVER: 11.1 g
  A/G: 0.9
  ALP: 1652.8 IU/L
  ALT: 46.2 IU/L
  AST: 68.8 IU/L
  BUN: 16.2 mg/dL
  CRE: 0.2 mg/dL
  Ca: 10.9 mg/dL
  Cl: 105.8 meq/L
  DBIL: 0.012 mg/dL
  GLC: 186.8 mg/dL
  IP: 8.1 mg/dL
  K: 4 meq/L
  LDH: 91.8 IU/L
  Na: 143.2 meq/L
  PL: 148.4 mg/dL
  RALB: 2.7 g/dL
  TBIL: 0.052 mg/dL
  TC: 73 mg/dL
  TG: 90 mg/dL
  TP: 5.7 g/dL
  gamma-GTP: 0.8 IU/L
[…], time 7 day
  TERMINAL_BW: 263.6 g
  APTT: 16.8 s
  Bas: 0%
  Eos: 1%
  Fbg: 282.2 mg/dL
  Hb: 13.6 g/dL
  Ht: 40.9%
  Lym: 79.2%
  MCH: 21.3 pg
  MCHC: 33.3%
  MCV: 63.9 fL
  Mono: 2.4%
  Neu: 16.4%
  PT: 15.4 s
  Plat: 113.3 x10_4/uL
  RBC: 639.4 x10_4/ul
  Ret: 6.1%
  WBC: 82.1 x10_2/uL
  KIDNEY_L: 1.1 g
  KIDNEY_R: 1.1 g
  KIDNEY_TOTAL: 2.3 g
  LIVER: 12.4 g
  A/G: 0.8
  ALP: 1624.6 IU/L
  ALT: 41.6 IU/L
  AST: 68.4 IU/L
  BUN: 16.6 mg/dL
  CRE: 0.2 mg/dL
  Ca: 11 mg/dL
  Cl: 105.2 meq/L
  DBIL: 0.016 mg/dL
  GLC: 193 mg/dL
  IP: 8 mg/dL
  K: 4 meq/L
  LDH: 68.4 IU/L
  Na: 143.2 meq/L
  PL: 166.6 mg/dL
  RALB: 2.7 g/dL
  TBIL: 0.054 mg/dL
  TC: 84 mg/dL
  TG: 103 mg/dL
  TP: 5.8 g/dL
  gamma-GTP: 0.8 IU/L
[…], time 14 day
  TERMINAL_BW: 336.5 g
  APTT: 16.9 s
  Bas: 0%
  Eos: 1%
  Fbg: 292 mg/dL
  Hb: 14.1 g/dL
  Ht: 41.5%
  Lym: 75.4%
  MCH: 20.7 pg
  MCHC: 34%
  MCV: 60.9 fL
  Mono: 2.8%
  Neu: 20.2%
  PT: 15.5 s
  Plat: 116.6 x10_4/uL
  RBC: 682.2 x10_4/ul
  Ret: 4.8%
  WBC: 105.1 x10_2/uL
  KIDNEY_L: 1.3 g
  KIDNEY_R: 1.3 g
  KIDNEY_TOTAL: 2.7 g
  LIVER: 15.4 g
  A/G: 0.8
  ALP: 1450 IU/L
  ALT: 40.6 IU/L
  AST: 62.6 IU/L
  BUN: 16.2 mg/dL
  CRE: 0.2 mg/dL
  Ca: 10.6 mg/dL
  Cl: 103.8 meq/L
  DBIL: 0.02 mg/dL
  GLC: 190.2 mg/dL
  IP: 7.4 mg/dL
  K: 4 meq/L
  LDH: 94.6 IU/L
  Na: 141.8 meq/L
  PL: 151.2 mg/dL
  RALB: 2.7 g/dL
  TBIL: 0.056 mg/dL
  TC: 73 mg/dL
  TG: 126.4 mg/dL
  TP: 6.1 g/dL
  gamma-GTP: 0.6 IU/L
[…], time 28 day
  TERMINAL_BW: 390.2 g
  APTT: 26.6 s
  Bas: 0.2%
  Eos: 1.2%
  Fbg: 295.8 mg/dL
  Hb: 15.1 g/dL
  Ht: 43.4%
  Lym: 79.6%
  MCH: 19.7 pg
  MCHC: 34.7%
  MCV: 56.7 fL
  Mono: 2%
  Neu: 16.4%
  PT: 15.9 s
  Plat: 105.6 x10_4/uL
  RBC: 766.4 x10_4/ul
  Ret: 2.4%
  WBC: 99.9 x10_2/uL
  KIDNEY_L: 1.4 g
  KIDNEY_R: 1.3 g
  KIDNEY_TOTAL: 2.8 g
  LIVER: 16.2 g
  A/G: 0.8
  ALP: 992.6 IU/L
  ALT: 36 IU/L
  AST: 61.2 IU/L
  BUN: 16.8 mg/dL
  CRE: 0.2 mg/dL
  Ca: 10.6 mg/dL
  Cl: 106 meq/L
  DBIL: 0.016 mg/dL
  GLC: 186.6 mg/dL
  IP: 6.6 mg/dL
  K: 4.1 meq/L
  LDH: 118.8 IU/L
  Na: 142.8 meq/L
  PL: 149.2 mg/dL
  RALB: 2.8 g/dL
  TBIL: 0.052 mg/dL
  TC: 68.2 mg/dL
  TG: 161.2 mg/dL
  TP: 6.3 g/dL
  gamma-GTP: 0.4 IU/L
